How the values were obtained:
epidermal layer in rats = test: Adverse reactions of continuous dermal administration: thickness of the epidermal layer (H&E sections); assay type: in vivo, SD rats; conditions: compared with the blank control group
Text: Pharmacological Example 10: Experiment on Adverse Reactions of Continuous Dermal Administration in Rats
Animals: SD rats, SPF grade, with an equal number of males and females, weighing 230-250 g.
Animal grouping: After adaptive feeding, the rats were randomly divided into 4 groups. […] One day before administration, the backs of rats were shaved at an area of 5 cm × 6 cm. […] The rats in the blank control group were applied with the blank matrix of corresponding mass on their backs, twice a day for a consecutive week. Table 21. Animal grouping and drug administration dosages for the experiment on adverse reactions of continuous dermal administration in rats
To examine the effects of continuous administration of the test samples on the epidermal layer, the back skin tissues were stained with hematoxylin and eosin (H&E) (magnification ×40), and the thickness of the epidermal layer was quantitatively measured based on the H&E-stained sections.

[1] = system: inflammatory bowel disease model rats; test: Inflammatory bowel disease experiment (TNBS model): macroscopic injury score of the colon; assay type: in vivo; conditions: compared with the model group
Procedure: Pharmacological Example 7: Pharmacodynamic Experiment on Inflammatory Bowel Disease in Rats
Test samples: The jet-milled compounds 23 and 34 were accurately weighed and prepared as 2 mg/mL clear solutions using anhydrous ethanol, respectively. The solutions were then diluted to 0.2 mg/mL with double-distilled water as the test samples, and stored at room temperature protected from light until use.
Animals in Groups 2 to 5 were subjected to trinitrobenzene sulfonic acid (TNBS) modeling as follows: A 5% TNBS aqueous solution was adjusted to 20 mg/mL TNBS (50% ethanol solution) with alcohol and water. After fasting for 24 h, the rats were anesthetized using an inhalation anesthesia machine. A silicone hose was inserted approximately 8 cm into the anus, and then TNBS was injected at a dose of 50 mg/kg. After injection, the rats were placed vertically for 1 min to prevent the backflow of TNBS solution. Then, the rats were placed into their cages for observation until the animals recovered.
Drug administration started one day before modeling, with one dose administered 1 hour before modeling and then once a day for 5 consecutive days. […] Table 14. Animal grouping and drug administration dosages
The experiment ended on day 5 after TNBS modeling. After isoflurane anesthesia, blood was collected from the hearts, and the rats were euthanized. The abdominal cavity was rapidly opened, and the macroscopic injury scoring of the colon in rats was performed based on the adhesion, obstruction, thickening of the colonic wall, colonic congestion, and necrosis in the colon area. After clearing the colonic contents, the colonic samples were longitudinally incised. The proximal 2/3 of the colon was excised, prepared into Swiss rolls, and stored in 4% neutral buffered formalin for histopathological analysis. Tissues were trimmed, dehydrated, paraffin-embedded, and sectioned (approximately 5 µm thickness), stained with hematoxylin-eosin (HE), and observed for pathological changes. Pathologists performed blind scoring of colonic lesions.
Quantitative indices were first subjected to Bartlett's test for homogeneity of variance. When the variance was homogeneous (P > 0.05), one-way analysis of variance (ANOVA) was used for a statistical test; if there was statistical significance (P ≤ 0.05), Dunnett's t-test (Dunnett method) was used to compare intergroup differences; if there was no statistical significance (P > 0.05), the statistical analysis was concluded. When the variance was heterogeneous (P ≤ 0.05), Kruskal-Wallis H rank-sum test (K-W method) was used for statistical analysis: if there was statistical significance (P ≤ 0.05), Mann-Whitney U test (M-W method) was further performed to compare intergroup differences; if there was no statistical significance (P > 0.05), the statistical analysis was concluded.

psoriasis model mice = test: Psoriasis experiment (imiquimod model): skin lesion (PASI) score; assay type: in vivo; conditions: compared with the model group
Procedure: Positive control drug: Fluticasone Propionate Cream (specification: 0.05% × 15 g, Zhejiang Xianju Pharmaceutical Co. Ltd., Lot No. 211106), stored at room temperature protected from light until use.
Adult mice were selected, and the skin of 2 cm × 3 cm on the back of mice was locally depilated. The mice in the model group and drug administration group were applied with 62.5 mg of 5% imiquimod cream on their back for modeling, while the mice in the blank control group were applied with medical petroleum jelly on their back daily. The above procedures were performed once a day for 7 consecutive days.
The mice in the drug administration group were applied with the corresponding drugs on their backs daily at a dose of 0.2 g per mouse, while the blank control group and the model group were only applied with 0.2 g of the test sample drug matrix. One hour after drug administration, the drugs were wiped off with sterile cotton swabs, followed by the application of imiquimod. The above procedures were performed once a day for 7 consecutive days.
Referring to the clinical Psoriasis Area and Severity Index (PASI) scoring criteria, erythema, scaling, and thickness at the skin lesion sites were evaluated on a 0-4 scale on day 8 of modeling, and the total score was obtained by summing the three items.
• (1) Erythema: a score of 0 points indicates no erythema, a score of 1 point indicates erythema appearing light red, a score of 2 points indicates erythema appearing red, a score of 3 points indicates erythema appearing dark red, and a score of 4 points indicates erythema appearing extremely deep red; • (2) Scaling: a score of 0 points indicates no scaling on the surface, a score of 1 point indicates partial skin lesions covered with scaling, a score of 2 points indicates most skin lesions covered with scaling, a score of 3 points indicates almost all skin lesions covered with scaling in layers, and a score of 4 points indicates all skin lesions covered with scaling; • (3) Thickness: a score of 0 points indicates skin lesions flush with normal skin, a score of 1 point indicates skin lesions slightly elevated above normal skin surface, a score of 2 points indicates moderate elevation of skin lesions, a score of 3 points indicates thickened skin lesions with obvious elevation, and a score of 4 points indicates highly thickened skin lesions with prominent elevation.
Statistical analysis was performed using SPSS software, and the results were expressed as mean ± standard deviation. One-way ANOVA was used for intergroup comparisons. For data with homogeneous variance, the LSD test was used; for data with heterogeneous variance, the Dunnett-t test was used. A value of P < 0.05 was considered statistically significant.

Row | Structure (SMILES) | thickness of the epidermal layer after continuous dermal administration (epidermal layer in rats) | inflammatory response on the intestinal surface / intestinal symptoms [1] | PASI scores (psoriasis model mice)
1 | C[C@]12C=CC(=O)C=C1CC[C@H]1[C@@H]3C[C@H]4OC(c5ccc(CSC6COC(=O)C6)cc5)O[C@@]4(C(=O)CO)[C@@]3(C)C[C@H](O)[C@@]12Cl (stereo partly drawn) [Compound 26, (6aS,6bR,7S,8aS,8bS,11aR,12aS,12bS)-6b-Chloro-7-hydroxy-8b-(2-hydroxyacetyl)-6a,8a-dimethyl-10-(4-(((5-oxotetrahydrofuran-3-yl)thio)methyl)phenyl)-1,2,6a,6b,7,8,8a,8b,11a,12,12a,12b-do decahydro-4H-naphtho[2',1':4,5]indeno[1,2-d][1,3]dioxol-4-one] | no significant changes in the thickness of the epidermal layer observed | significantly alleviated the intestinal symptoms in inflammatory bowel disease model rats | significantly decreased PASI scores on day 7
2 | C[C@]12C=CC(=O)C=C1[C@@H](F)C[C@H]1[C@@H]3C[C@H]4OC(c5ccc(CSC6CCOC6=O)cc5)O[C@@]4(C(=O)OCC#N)[C@@]3(C)C[C@H](O)[C@@]12F (stereo partly drawn) [Compound 37, Cyanomethyl (2S,6aS,6bR,7S,8aS,8bS,11aR,12aS,12bS)-2,6b-difluoro-7-hydroxy-6a,8a-dimethyl-4-oxo-10-(4-( ((2-oxotetrahydrofuran-3-yl)thio)methyl)phenyl)-1,2,4,6a,6b,7,8,8a,11a,12,12a,12b-dodecahydro-8bH-naphtho[2',1':4,5]indeno[1,2-d][1,3]dioxole-8b-carboxylate] | no significant changes in the thickness of the epidermal layer observed | significantly alleviated the intestinal symptoms in inflammatory bowel disease model rats | significantly decreased PASI scores on day 7
3 | C[C@]12C=CC(=O)C=C1[C@@H](F)C[C@H]1[C@@H]3C[C@H]4OC(c5ccc(CSC6CCOC6=O)nc5)O[C@@]4(C(=O)CO)[C@@]3(C)C[C@H](O)[C@@]12F (stereo partly drawn) [Compound 46, (25,6aS,6bR,78,8a8,8bS,11aR,12a8,12b8S)-2,6b-Difluoro-7-hydroxy-8b-(2-hydroxyacetyl)-6a,8a-dimethyl-10-(6-(((2-oxotetrahydrofuran-3-yl)thio)methyl)pyridin-3-yl)-1,2,6a,6b,7,8,8a,8b,11a,12, 12a,12b-dodecahydro-4H-naphtho[2',1':4,5]indeno[1,2-d][1,3]dioxol-4-one] | no significant changes in the thickness of the epidermal layer observed | significantly alleviated the intestinal symptoms in inflammatory bowel disease model rats | significantly decreased PASI scores on day 7
4 | C[C@]12C=CC(=O)C=C1CC[C@H]1[C@@H]3C[C@H]4OC(c5ccc(CSC6COC(=O)C6)cc5Cl)O[C@@]4(C(=O)CO)[C@@]3(C)C[C@H](O)[C@@]12F (stereo partly drawn) [Compound 20, (6aS,6bR,7S,8aS,8bS,11aR,12aS,12bS)-10-(2-Chloro-4-(((5-oxotetrahydrofuran-3-yl)thio)methyl)phenyl)-6b-fluoro-7-hydroxy-8b-(2-hydroxyacetyl)-6a,8a-dimethyl-1,2,6a,6b,7,8,8a,8b,11a,12,12a, 12b-dodecahydro-4H-naphtho[2',1':4,5]indeno[1,2-d][1,3]dioxol-4-one] | no significant changes in the thickness of the epidermal layer observed | significantly alleviated the intestinal symptoms in inflammatory bowel disease model rats | significantly decreased PASI scores on day 7
5 | C[C@]12C=CC(=O)C=C1CC[C@H]1[C@@H]3C[C@H]4OC(c5ccc(CSC6CCOC6=O)cn5)O[C@@]4(C(=O)CO)[C@@]3(C)C[C@H](O)[C@@]12Cl (stereo partly drawn) [Compound 51, (6aS,6bR,7S,8aS,8bS,11aR,12aS,12bS)-6b-Chloro-7-hydroxy-8b-(2-hydroxyacetyl)-6a,8a-dimethyl-10-(5-(((2-oxotetrahydrofuran-3-yl)thio)methyl)pyridin-2-yl)-1,2,6a,6b,7,8,8a,8b,11a,12,12a,12 b-dodecahydro-4H-naphtho[2',1':4,5]indeno[1,2-d][1,3]dioxol-4-one] | no significant changes in the thickness of the epidermal layer observed | significantly alleviated the intestinal symptoms in inflammatory bowel disease model rats | significantly decreased PASI scores on day 7
6 | C[C@]12C=CC(=O)C=C1CC[C@H]1[C@@H]3C[C@H]4OC(c5ccc(CNC6COC(=O)C6)cc5)O[C@@]4(C(=O)CO)[C@@]3(C)C[C@H](O)[C@@]12F (stereo partly drawn) [Compound 21, (6aS,6bR,7S,8aS,8bS,11aR,12aS,12bS)-6b-Fluoro-7-hydroxy-8b-(2-hydroxyacetyl)-6a,8a-dimethyl-10-(4-(((5-oxotetrahydrofuran-3-yl)amino)methyl)phenyl)-1,2,6a,6b,7,8,8a,8b,11a,12,12a,12b-dodecahydro-4H-naphtho[2',1':4,5]indeno[1,2-d][1,3]dioxol-4-one] | no significant changes in the thickness of the epidermal layer observed | significantly alleviated the intestinal symptoms in inflammatory bowel disease model rats | significantly decreased PASI scores on day 7
7 | C[C@]12C=CC(=O)C=C1CC[C@H]1[C@@H]3C[C@H]4OC(c5ccc(CSC6CCOC6=O)nc5)O[C@@]4(C(=O)CO)[C@@]3(C)C[C@H](O)[C@@]12Cl (stereo partly drawn) [Compound 48, (6aS,6bR,7S,8aS,8bS,11aR,12aS,12bS)-6b-Chloro-7-hydroxy-8b-(2-hydroxyacetyl)-6a,8a-dimethyl-10-(6-(((2-oxotetrahydrofuran-3-yl)thio)methyl)pyridin-3-yl)-1,2,6a,6b,7,8,8a,8b,11a,12,12a,12 b-dodecahydro-4H-naphtho[2',1':4,5]indeno[1,2-d][1,3]dioxol-4-one] | no significant changes in the thickness of the epidermal layer observed | significantly alleviated the intestinal symptoms in inflammatory bowel disease model rats | significantly decreased PASI scores on day 7

Reference: EP4635969A1, “NOVEL GLUCOCORTICOID, METHOD FOR PREPARING SAME, AND USE THEREOF” (Tianjin Pharmaceutical Biotechnology Co., Ltd., priority 2022, dated 2024)
